The results in this text go back to PubChem BioAssay (NCI).

Each structure is given as a SMILES string.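 Assay format: 96-well plates, 48-hour exposure. TGI is the concentration that stops growth completely.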

Test systems include ACHN renal; PC-3 prostate; OVCAR-5 ovarian; MDA-N; RXF 393 renal; SW-620 colon; M14 melanoma; OVCAR-3 ovarian; SK-MEL-5 melanoma; T-47D breast; KM12 colon; SF-268 CNS; BT-549 breast; NCI-H226 lung; NCI-H23 lung; HS 578T breast; SNB-19 CNS; CAKI-1 renal; SR leukemia.
Holding throughout (experiment): growth of human tumour cells (NCI), 48 h

For `Nc1ccc2nc3c(nc2c1)C(=O)c1ccccc1-3`, the TGI in the assay with ACHN renal, with PC-3 prostate, in the assay on OVCAR-5 ovarian, in the assay on MDA-N, with RXF 393 renal and in the assay on SW-620 colon was greater than 100 µM in each case. The TGI with M14 melanoma, in the assay with OVCAR-3 ovarian, in the assay on SK-MEL-5 melanoma, in the assay with T-47D breast, with KM12 colon and in the assay on SF-268 CNS was greater than 100 µM throughout. Moreover, the TGI in the assay with BT-549 breast, in the assay with NCI-H226 lung, in the assay on NCI-H23 lung, in the assay with HS 578T breast and in the assay on SNB-19 CNS was greater than 100 µM throughout.
On to `O=C1c2cccnc2S(=O)(=O)N1c1ccc(Oc2ccccc2)cc1`, for which the TGI in the assay on ACHN renal, in the assay on PC-3 prostate, with OVCAR-5 ovarian, with MDA-N, with RXF 393 renal and in the assay with CAKI-1 renal was greater than 100 µM in each case. In addition, the TGI with SR leukemia, in the assay on SW-620 colon, in the assay on M14 melanoma, with OVCAR-3 ovarian, with T-47D breast and with KM12 colon was greater than 100 µM each time. In addition, the TGI in the assay on SF-268 CNS, in the assay on BT-549 breast, in the assay on NCI-H226 lung, in the assay with NCI-H23 lung and in the assay on SNB-19 CNS was greater than 100 µM in each case.
`C1=NCCN2CCN(CCN=Cc3ccccc3OCc3cccc(n3)COc3ccccc31)CC2`: the TGI in the assay on ACHN renal was 25.6 µM; in the assay with PC-3 prostate it was greater than 50 µM; in the assay on OVCAR-5 ovarian, 28.3 µM; with MDA-N, 2.72 µM; in the assay on RXF 393 renal it was 4.68 µM; in the assay on SR leukemia it was 15.4 µM. Further, the TGI in the assay with SW-620 colon was greater than 50 µM; in the assay with M14 melanoma it was greater than 50 µM; with OVCAR-3 ovarian, 4.66 µM; in the assay with KM12 colon it was 26.2 µM; in the assay with SF-268 CNS, 21.1 µM; in the assay with BT-549 breast it was 25.9 µM. The TGI is greater than 50 µM in the assay with NCI-H23 lung, 4.43 µM with HS 578T breast and greater than 50 µM with SNB-19 CNS.
As for `CCOc1ccc(N/C(=C(/C(Cl)=C(/Cl)Nc2ccccc2)[N+](=O)[O-])n2nnc3ccccc32)cc1`, the TGI with ACHN renal is greater than 100 µM; with PC-3 prostate, 58.4 µM; with OVCAR-5 ovarian it was greater than 100 µM; in the assay with MDA-N it was 40.3 µM; in the assay with CAKI-1 renal it was 60.4 µM; in the assay on M14 melanoma, 34 µM. Also, the TGI with OVCAR-3 ovarian was 80.8 µM; in the assay with SK-MEL-5 melanoma, 37 µM; with T-47D breast, greater than 100 µM; with KM12 colon, greater than 100 µM; with SF-268 CNS it was 53.4 µM; in the assay on BT-549 breast it was 28.7 µM. Also, the TGI with NCI-H226 lung is greater than 100 µM; with NCI-H23 lung, 32.6 µM; with SNB-19 CNS, greater than 100 µM.
Take `C=C1CCCC2[C@](C)(CC3=C(Cl)C(=O)C=C(OC)C3=O)C(C)CC[C@]12C` (stereo partly specified): the TGI with ACHN renal was determined as 10.7 µM; with PC-3 prostate, 6.64 µM; in the assay with OVCAR-5 ovarian it was 9 µM; in the assay on MDA-N, 13.7 µM; in the assay with RXF 393 renal, 12.1 µM; with CAKI-1 renal, 8.83 µM. The TGI with SR leukemia amounted to 13.6 µM; with SW-620 colon it was 10.4 µM; in the assay with M14 melanoma it was 10.3 µM; with OVCAR-3 ovarian, 11.9 µM; in the assay with SK-MEL-5 melanoma it was 12.5 µM; in the assay with KM12 colon it was 8.14 µM. The TGI in the assay on SF-268 CNS stood at 11.6 µM; in the assay with BT-549 breast it was 11.4 µM; with NCI-H226 lung, 14.7 µM; with NCI-H23 lung, 13.1 µM; in the assay on HS 578T breast it was 26 µM; in the assay with SNB-19 CNS it was 13.9 µM.
As for `COc1cc2nc(Nc3cccc(Br)c3)nc(Nc3cccc(Br)c3)c2cc1OC`, the TGI in the assay on ACHN renal was 29.4 µM; in the assay with PC-3 prostate, 41.6 µM; in the assay with OVCAR-5 ovarian, 70.9 µM; with MDA-N it was 32.8 µM; in the assay on RXF 393 renal, 33.7 µM; in the assay on CAKI-1 renal it was 29.8 µM. In addition, the TGI stood at 45.8 µM in the assay with SW-620 colon; 32.3 µM with M14 melanoma; 31.2 µM with OVCAR-3 ovarian; 30.7 µM in the assay with SK-MEL-5 melanoma; 43.7 µM with T-47D breast; 36.7 µM in the assay with KM12 colon. In addition, the TGI with SF-268 CNS stood at 29.9 µM; in the assay on BT-549 breast it was 30.7 µM; in the assay on NCI-H23 lung it was 33.3 µM; in the assay with HS 578T breast, 38.5 µM; in the assay with SNB-19 CNS it was 32.3 µM.
With `CC(C)(C)n1c(=O)n2n(c1=O)Cc1cccc3cccc(c13)C2`, the TGI with ACHN renal came to 44.7 µM; with PC-3 prostate it was 30.5 µM; with OVCAR-5 ovarian, 35.1 µM; in the assay on MDA-N, 50.8 µM; with RXF 393 renal, 27.1 µM; in the assay with CAKI-1 renal it was 36.9 µM. For the same molecule, the TGI was 42.3 µM in the assay on SR leukemia; 35.9 µM in the assay on SW-620 colon; 34.1 µM with M14 melanoma; 35.1 µM in the assay with OVCAR-3 ovarian; greater than 100 µM with SK-MEL-5 melanoma; 34 µM with KM12 colon. Moreover, the TGI was 49.1 µM in the assay on SF-268 CNS; 95.3 µM in the assay with BT-549 breast; greater than 100 µM in the assay on NCI-H23 lung; 61.1 µM in the assay with HS 578T breast; greater than 100 µM with SNB-19 CNS.
